# Data reported in patent US6656959B1, “PDE IV inhibiting pyridine derivatives” (Janssen Pharmaceutica N.V., priority 2000, dated 2003).
# Target: T1, recombinant human MNL phosphodiesterase type IV B (Homo sapiens, UniProt Q07343)
# T1 construct: FLAG; made in house; host or cells: insect cells infected with recombinant baculovirus
# Assay: Inhibition of recombinant human mononuclear lymphocyte (MNL) phosphodiesterase type IV B produced in insect cells with a baculovirus vector
# Format: biochemical
# Conditions: remaining enzyme activity versus control
# Method: Inhibition of Recombinant Human Mononuclear Lymphocyte (MNL) Phosphodiesterase Type IV B Produced in Insect Cells with a Baculovirus Vector
# The alleviating and/or curing effect of the instant compounds on allergic and atopic diseases was assessed by an in vitro assay system to detect an inhibiting effect on the recombinant human MNL phosphodiesterase type IV B.
# Seventy-two hours after infection with recombinant baculovirus, the insect cells were harvested and pelleted at 500 g for 5 minutes. The cells were lysed in 10 ml lysis-buffer consisting of 20 mM Tris, 10 mM EGTA, 2 mM Na2EDTA, 1% Triton-X-100, 1 mM Na3VO4, 10 mM NaF, 2 μg/ml of leupeptine, pepstatine and aprotinine, 0.3 μg/ml benzamidine and 100 μg/ml TPCK pH 7.5. After 5 minutes on ice, solubilized cells were centrifuged at 4000 rpm for 15 minutes at 4° C. The resulting supernatant was filtered through a 0.45 μm filter (Millipore) and brought to TBS buffer (50 mM Tris, 150 mM NaCl pH 7.4).
# The supernatant containing phosphodiesterase (PDE) type IV B, was subsequently loaded onto a 5 ml anti-FLAG-M2 affinity gel column, previously activated with 5 ml 100 mM glycine pH 3.5 and equilibrated with 20 ml 50 mM Tris, 150 mM NaCl pH 7.4. After washing the column with equilibration buffer, PDE IV was eluted in 1.5 ml fractions containing 37.5 μl IM Tris pH 8. The fractions were dialyzed overnight against 20 mM Tris, 2mM Na2EDTA and 400 mM NaCl pH 7.5 and tested for PDE IV activity. Identification was done on SDS PAGE and Western Blot (anti-FLAG-M2). Active fractions were pooled, brought to 10% glycerol and stored at −70° C.
# The incubation mixture (pH 8) (200 μl) contained 20 mM Tris, 10 mM magnesium sulphate, 0.8 μM ^3H-cAMP (310 mCi/mmole) and the phosphodiesterase type IV, the amount depending on the enzymatic activity. […]
# The inhibiting effect of the present compounds on recombinant human MNL phosphodiesterase PDE IV B was measured at different concentrations of the instant compounds.
# T1 sequence (Q07343 whole entry): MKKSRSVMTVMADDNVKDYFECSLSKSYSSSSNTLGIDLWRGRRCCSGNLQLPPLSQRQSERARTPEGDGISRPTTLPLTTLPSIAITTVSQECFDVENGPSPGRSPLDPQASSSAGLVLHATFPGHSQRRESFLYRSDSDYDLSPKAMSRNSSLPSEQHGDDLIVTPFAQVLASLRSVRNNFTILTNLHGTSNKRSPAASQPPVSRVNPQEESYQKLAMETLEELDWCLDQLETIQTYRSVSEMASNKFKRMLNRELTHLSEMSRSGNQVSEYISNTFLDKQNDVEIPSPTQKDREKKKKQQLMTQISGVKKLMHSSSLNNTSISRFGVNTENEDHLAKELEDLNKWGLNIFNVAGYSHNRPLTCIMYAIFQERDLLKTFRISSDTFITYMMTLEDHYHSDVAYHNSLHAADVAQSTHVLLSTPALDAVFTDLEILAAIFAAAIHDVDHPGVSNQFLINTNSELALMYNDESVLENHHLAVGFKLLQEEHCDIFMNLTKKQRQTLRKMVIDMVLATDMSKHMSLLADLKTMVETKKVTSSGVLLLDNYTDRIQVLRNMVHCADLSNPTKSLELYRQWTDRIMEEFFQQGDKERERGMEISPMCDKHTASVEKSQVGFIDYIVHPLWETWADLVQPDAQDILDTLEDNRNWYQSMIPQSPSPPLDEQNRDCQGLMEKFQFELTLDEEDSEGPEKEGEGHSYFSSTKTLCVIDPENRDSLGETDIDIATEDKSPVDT
Structure (SMILES),% Activity (% activity of PDE IV B versus control) (Test Dose 10^−7 M) [%],% Activity (% activity of PDE IV B versus control) (Test Dose 10^−6 M) [%]
"COc1ccc(C(C)Cn2cc[nH]c2=NC#N)nc1OC1CCCC1 (racemic) [Compound 22, (±)-[1-[2-[6-(cyclopentyloxy)-5-methoxy-2-pyridinyl]propyl]-1,3-dihydro-2H-imidazol-2-ylidene]cyanamide]",25,
"COc1cnc(C(O)Cn2cc[nH]c2=O)cc1OCCCCCc1ccccc1 (stereo not drawn) [Compound 18, 1,3-dihydro-1-[2-hydroxy-2-[5-methoxy-4-[(5-phenylpentyl)oxy]-2-pyridinyl]ethyl]-2H-imidazol-2-one]",,77
"COc1cnc(C(C)(O)Cn2cc[nH]c2=O)cc1OCCCCCc1ccccc1 (racemic) [Compound 23, (±)-1,3-dihydro-1-[2-hydroxy-2-[5-methoxy-4-[(5-phenylpentyl)oxy]-2-pyridinyl]propyl]-2H-imidazol-2-one]",,35
